{"source": "paper PMC7140460", "about": "“Fluorinated Galactoses Inhibit Galactose-1-Phosphate Uridyltransferase and Metabolically Induce Galactosemia-like Phenotypes in HEK-293 Cells” (Cells, 2020)", "biological_target": "T1, recombinant hGALT (human galactose-1-phosphate uridyltransferase) (Homo sapiens, UniProt P07902)", "T1 construct": "gene GALT; synthetic gene in pET-15b (NdeI-BamHI, insert 1149 bp), His-tagged, E. coli BL21(DE3)-RIPL, Ni-NTA purified; tag removal not mentioned", "T1 sequence (P07902 whole entry)": "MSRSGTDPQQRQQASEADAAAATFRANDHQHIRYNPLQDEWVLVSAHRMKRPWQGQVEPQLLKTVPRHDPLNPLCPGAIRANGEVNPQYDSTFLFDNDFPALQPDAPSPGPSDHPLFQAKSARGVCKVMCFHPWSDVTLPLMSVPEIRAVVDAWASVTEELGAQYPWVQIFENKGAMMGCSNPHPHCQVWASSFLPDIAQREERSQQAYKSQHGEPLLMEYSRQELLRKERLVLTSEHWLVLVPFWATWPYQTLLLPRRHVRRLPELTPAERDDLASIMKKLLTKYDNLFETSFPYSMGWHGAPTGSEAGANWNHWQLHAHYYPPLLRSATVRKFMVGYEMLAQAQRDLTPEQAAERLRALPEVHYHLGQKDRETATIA", "assay": "coupled PGM/G6PDH assay, NADPH absorbance at […] nm", "assay_type": "biochemical"}
{"smiles": "O=P(O)(O)O[C@H]1O[C@H](CO)[C@H](O)[C@H](O)[C@H]1F", "note": "[F-Gal-1-P, 2-fluoro-2-deoxy-galactose-1-phosphate]", "values": [{"measurement": "Ki", "result": 900, "unit": "µM"}]}
